The format of series [1] is in vitro ADME, human. As for the experimental part: Each compound was incubated with phosphate buffered saline (PBS, pH=7.4) containing 60% mouse plasma at 37° C. for the duration of the study. At the time points of 6 h, 24 h and 72 h, aliquots of the incubated solutions were withdrawn and diluted with acetonitrile to precipitate the plasma proteins, which were subsequently removed by microcentrifugation at 13,000 rpm for 5 mins. The supernatant was collected and diluted for the analytical reversed-phase HPLC using a linear gradient of buffer B over buffer A (A: 10% aqueous acetonitrile, 0.1% TFA; B: 90% aqueous acetonitrile, 0.1% TFA) on a Zorbax C8 column (4.6×50 mm). RNA-Seq Total RNAs were extracted from frozen liver samples of 4 independent mice per group (vehicle, glucagon only, T3 only, co-administration of glucagon and T3 and glucagon/T3) using TriPure RNA reagent (Sigma). Poly-A isolation, library generation and amplification were performed according to the protocol of the mRNASeq Library Prep Kit (Lexogen). […] Mapping of color-coded reads on the mouse genome (mm10 assembly) was performed using the Lifescope software (Life Technologies). Reads for annotated (Ensembl) genes were counted using HtSeq. […] The synergy score (SS) was calculated as the relative fold change (FC) of (glucagon/T3) compared to the maximum FC of T3 and glucagon alone: SS=FC (glucagon/T3)/max (T3, glucagon). […]

In series [2] the test system is DIO mice. In words: Cardiac function and histology in DIO mice (echocardiography). Format: in vivo, mouse. To be noted: mouse, in vivo. As for the experimental part:
After chronic treatment, HFHCD-fed or HFHSD-fed C57B16/j male mice (age) were sacrificed with CO2, body weight as well as heart weights and tibia length was taken during necropsy. Livers and whole hearts were embedded in paraffin using a vacuum infiltration processor TissueTEK VIP (Sakura). 3 μm thick slides were cut using a HMS35 rotatory microtome (Zeiss) and H & E staining was performed. For H & E staining, rehydration was done in a decreasing ethanol series, rinsing with tapwater, 2 min Mayers acid Hemalum, bluing in tapwater followed by lmin EosinY (both BioOptica). Dehydration was performed in increasing ethanol series, mounting with Pertex® (Medite GmbH) and coverslips (CarlRoth Chemicals). The slides were evaluated independently using a brightfield microscope (Axioplan, Zeiss). Photos were taken using the Hamamatsu-Nanozoomer HT2.0 in 1.25×, 5×. 20× and 40× magnification. The hepatic steatosis score is defined as the unweighted sum of the three individual scores for steatosis, lobular inflammation and ballooning degeneration. Steatosis is graded by the presence of fat vacuoles in liver cells according to the percentage of affected tissue (0: <5%; 1: 5-33%; 2: 33-66%; 3: >66%). Lobular inflammation is scored by overall assessment of inflammatory foci per 200× field (0: no foci; 1: <2 foci; 2: 2-4 foci; 3: >4 foci). The individual score for ballooning degeneration ranges from 0 (none), 1 (few cells) to 2 (many cells). Total scores range from 0 to 8 with scores <2 considered non-steatosis, 3 considered as borderline steatosis, 4-5 considered onset of steatosis, and >6 considered steatosis. Different to liver and heart, inguinal fat pad samples were embedded in paraffin using Leica embedding machine (EG1150 H) and cut in 5 μm sections using Leica Microtome (RM2255) to perform H&E staining. Samples were stained with hematoxyline for 4 minutes and eosinY for 2 minutes and fixed with Roti®-Histokitt (Carl Roth) before analysing them independently using Microscope Scope A.1 (Zeiss).
For transthoracic echocardiography, a Vevo2100 Imaging System (VisualSonics Inc., Toronto Canada) with a 30 MHz probe was used. All echocardiograms were performed on conscious animals to prevent anesthesia-related impairment of cardiac function as reported previously. Briefly, echocardiograms were obtained in parasternal long and short axis views. For accurate linear measurements of LV internal dimensions (LVID) and […] (LVPW) or septal (IVS) wall thicknesses, M-mode images of the heart in parasternal short-axis view at the level of the papillary muscle were acquired. Qualitative and quantitative measurements were made offline using analytical software (VisualSonics Inc.). Fractional shortening (FS) was calculated as FS %=[(LVIDd−LVIDs)/LVIDd]×100. Ejection fraction (EF) was calculated as EF %=100*((LVvolD−LVvolS)/LVvolD) with LVvol=((7.0/(2.4+LVID)*LVID^3). The corrected LV mass (LV MassCor) was calculated as LV MassCor=0.8(1.053*((LVIDd+LVPWd+IVSd)^3−LVIDd^3)). Heart rate and respiration rate were determined from M-mode tracings, using 3 consecutive intervals.
Gene expression profiling in the liver, iWAT, eWAT, BAT, and heart were performed following treatment of mice according to the treatment paradigms explained in the figure legends for each specific analsysis. For tissue collection, mice were fasted for 4 h and treated with compounds 2 h prior to tissue collection. Gene expression was profiled with quantitative real-time RT-PCR using either TaqMan single probes or with specifically-designed TaqMan low-density array cards. The relative expression of the selected genes was normalized to the reference gene hypoxanthine-guanine phosphoribosyltransferase (Hprt).

Series [3] deals with HFHSD-fed male C57Bl6j mice. In words: Metabolic efficacy of different glucagon/T3 conjugate versions in HFHSD-fed mice. The format is in vivo, mouse. To be noted: 100 nmol kg-1 daily, 14 days. The text has this:
For studies on lipid handling in wildtype mice (Western mice), male C57Bl/6j mice (Jackson Laboratories) were fed a atherogenic Western diet (Research Diets D12079B), which is a high-cholesterol diet (0.21% gm %) with 41% kcal from fat, 43% kcal from carbohydrates, and 17% kcal from protein. For studies on energy metabolism in obese mice (DIO mice), male C57Bl/6j mice (Jackson Laboratories) were fed a diabetogenic diet (Research Diets D12331), which is a high-sucrose diet with 58% kcal from fat 25.5% kcal from carbohydrates, and 16.4% kcal from protein. Both dietary challenges began at 8 weeks of age. HFHSD and HFHCD mice were single- or group-housed on a 12:12-h light-dark cycle at 22° C. with free access to food and water. Mice were maintained under these conditions for a minimum of 16 weeks before initiation of pharmacological studies and were between the ages of 6 months to 12 months old. All injections and tests were performed during the light cycle. Compounds were administered in a vehicle of 1% Tween-80 and 1% DMSO and were given by daily subcutaneous injections at the indicated doses at a volume of 5 μl per g body weight. Mice were randomized and evenly distributed to test groups according to body weight and body composition. If ex vivo molecular biology/histology/biochemistry analyses were performed, the entire group of mice for each treatment was analyzed and scored in a blinded fashion.
Compounds were administered by repeated subcutaneous injections in the middle of the light phase at the indicated doses with the indicated durations. Co-administration of compounds was administered by single formulated injections. Body weights and food intake were measured every day or every other day after the first injection. All studies with wild-type mice were performed with a group size of n=8 or greater using mice on a C57B16j background.
Blood was collected at the indicated times from tail veins or after euthanasia using EDTA-coated microvette tubes (Sarstedt), immediately chilled on ice, centrifuged at 5,000 g and 4° C., and plasma was stored at −80° C. For […] (FPLC) of cholesterol distribution in different lipoprotein fractions, fresh plasma from each treatment group was pooled (n=6-8) and ran over two Superose 6 HR columns in tandem. Cholesterol levels in the collected fractions were determined by colorimetric assay. Plasma insulin and T3 were quantified by an ELISA assay (Ultrasenstive Mouse Insulin ELISA and Rodent T3 ELISA; Alpco). Plasma FGF21 was quantified by an ELISA assay (Mouse FGF21 ELISA; Millipore). Plasma cholesterol, extracted hepatic cholesterol, triglycerides, ALT, and AST were measured using enzymatic assay kits (Thermo Fisher). Plasma creatinine and blood urea nitrogen were measured using enzymatic assay kits (Abcam). Plasma free fatty acids were measured using enzymatic assay kits (Wako). All assays were performed according to the manufacturers' instructions.

This is an account of results in US20190388510A1, “GLUCAGON-T3 CONJUGATES” (priority 2016, published 2019).

*1 amine or outer side, *2 acyl side, *3 side chain or, on linkers, in order; H or OH if unused. Where a SMILES comes first, the peptide text is derived from it. Where no end group is shown, it is not given here. Side-chain parts run from the residue outwards. [ ]: non-standard residue; d: D form. Thyronine(3,5,3'-I3) = N[C@@H](Cc1cc(I)c(Oc2ccc(O)c(I)c2)c(I)c1)C(=O)O; γGlu = O=C(O)[C@H](CCC(=O)[*:2])N[*:1]

As to `CSCC[C@H](NC(=O)[C@H](CC(C)C)NC(=O)[C@H](Cc1c[nH]c2ccccc12)NC(=O)[C@H](CCC(N)=O)NC(=O)[C@@H](NC(=O)[C@H](Cc1ccccc1)NC(=O)[C@H](CC(=O)O)NC(=O)[C@H](CCC(N)=O)NC(=O)[C@H](C)NC(=O)[C@H](CCCNC(=N)N)NC(=O)[C@H](CCCNC(=N)N)NC(=O)[C@H](CO)NC(=O)[C@H](CC(=O)O)NC(=O)[C@H](CC(C)C)NC(=O)[C@H](Cc1ccc(O)cc1)NC(=O)[C@H](CCCCN)NC(=O)[C@H](CO)NC(=O)[C@H](Cc1ccc(O)cc1)NC(=O)[C@H](CC(=O)O)NC(=O)[C@H](CO)NC(=O)[C@@H](NC(=O)[C@H](Cc1ccccc1)NC(=O)[C@@H](NC(=O)CNC(=O)[C@H](CCC(N)=O)NC(=O)[C@@H](CO)NC(=O)[C@@H](N)Cc1c[nH]cn1)[C@@H](C)O)[C@@H](C)O)C(C)C)C(=O)N[C@@H](CC(N)=O)C(=O)NCC(=O)NCC(=O)N1CCC[C@H]1C(=O)N[C@@H](CO)C(=O)N[C@@H](CO)C(=O)NCC(=O)N[C@@H](C)C(=O)N1CCC[C@H]1C(=O)N1CCC[C@H]1C(=O)N1CCC[C@H]1C(=O)N[C@@H](CO)C(=O)N[C@@H](CCCCNC(=O)CC[C@H](NC(=O)[C@@H](N)Cc1cc(I)c(Oc2ccc(O)c(I)c2)c(I)c1)C(=O)O)C(N)=O` [glucagon/T3] (H-H[dS]QGTFTSDYSKYLDSRRAQDFVQWLMNGGPSSGAPPPSK([γGlu-Thyronine(3,5,3'-I3)])-NH2; N-terminus assumed), in series [1], the degradation in plasma entry was “remains intact with nearly no detectable degradation”. For the same compound, in series [2], the “heart histology: thyrotoxic cardiomyopathy” value is recorded as “none of these manifestations of thyrotoxicity or thyroid hormone induced cardiomyopathy were detectable”; the “whole heart expression of T3-sensitive genes (Dio2, Ucp2)” value is given as “did not appear to be regulated”; the “whole heart expression of hypertrophic gene markers (Nppa, Nppb)” value is “did not appear to be regulated”.

As for “glucagon/iT3: inverted attachment: amine of T3 covalently linked to the glucagon analog through a succinate spacer at Lys40 (H[dS]QGTFTSDYSKYLDSRRAQDFVQWLMNGGPSSGAPPPSK; not fully specified (residue 40))”, in series [3], the body weight lowering entry is “failed to lower body weight”, the cholesterol lowering effect entry is “not evident” and the lipid lowering result is reported as “did not lower lipids”.

Regarding “glucagon/rT3: reverse T3 (rT3) coupled to the glucagon analog with the same linker chemistry as glucagon/T3 (H[dS]QGTFTSDYSKYLDSRRAQDFVQWLMNGGPSSGAPPPSK; not fully specified (residue 40); also: reverse T3 (rT3) coupled with same linker chemistry as glucagon/T3)”, in series [3], the body weight lowering entry is recorded as “failed to lower body weight”, the cholesterol lowering effect entry is recorded as “not evident” and the lipid lowering result is given as “did not lower lipids”.
